In patent US20210227825A1, “SAFENER” (Nippon Soda Co., Ltd., priority 2018, published 2021):

Test system: rice seedling (variety: Koshihikari)
Experiment: Rice hydroponics test tube test, number of new roots after 5 days (Example 5, Comparative Examples 1 and 2)
Type: in vivo
Details: for safener effect on inhibition of new root development by pyrazosulfuron-ethyl: 0.01 mg pyrazosulfuron-ethyl in 1 L hydroponics solution; for Condition of new roots in test tube of safener composition: 0.01 mg pyrazosulfuron-ethyl plus the safener (0.1 ml safener (A) or 0.01 mg comparative) in 1 L hydroponics solution
Method: One rice seedling (variety: Koshihikari) in the two-leaf stage was transplanted into the test tube. This was placed in an artificial meteorological instrument set to 16 hours (25° C.) in the light period and 8 hours (20° C.) in the dark period. After a lapse of 5 days, the number of new roots was counted. This test was performed a total of 6 times. An average value was calculated from the measured values for 6 times.
A comparative safener composition (1) was obtained by the same method as that for the safener composition (2), with the exception that 0.1 ml of the safener (A) of Example 5 was replaced with a solution obtained by dissolving 0.01 mg of α-naphthylacetamide in 10 μl of DMSO.
A comparative safener composition (2) was obtained by the same method as that for the safener composition (2), with the exception that 0.1 ml of the safener (A) of Example 5 was replaced with a solution obtained by dissolving 0.01 mg of indole butyric acid in 10 μl of DMSO.

| Compound | safener effect on inhibition of new root development by pyrazosulfuron-ethyl | Condition of new roots in test tube of safener composition [roots] |
| --- | --- | --- |
| NC(=O)Cc1cccc2ccccc12 [α-Naphthylacetamide, α-naphthylacetamide] | no safener effect | 3.3 |
| indole butyric acid | no safener effect | 5.0 |
